Results published in article PMC9775322, “An Integrated Analysis of Mechanistic Insights into Biomolecular Interactions and Molecular Dynamics of Bio-Inspired Cu(II) and Zn(II) Complexes towards DNA/BSA/SARS-CoV-2 3CL^pro by Molecular Docking-Based Virtual Screening and FRET Detection” (Biomolecules, 2022).
“And” between values parts separate entries of the source, which are not always exact repeats. Equal entries are not always repeated.

Experiments:
BSA = target: T1, BSA (Bos taurus, UniProt P02769); assay: Förster's theory-based FRET computation, donor (BSA)–acceptor (compound); format: binding, bovine; parameters: kET (rate of exchange resonance energy transfer): unit not given here; details: for J (normalized spectral overlap integral): BSA emission vs compound absorption; for kET (rate of exchange resonance energy transfer) / r (donor-acceptor separation): BSA–compound; for E (efficiency of energy transfer): E=1−F/F0; for B (average brightness of the complex-BSA system): free BSA = 6573.60 M^−1 cm^−1; for R0 (critical distance, 50% energy transfer): n = 1.36, Φ = 0.15, K^2 = 2/3
T1 construct: purchased Sigma Aldrich
Text: As per Förster’s theory, the critical distance of the donor-acceptor system can be determined with the supporting of the FRET approach to assess the binding affinity between BSA-substance systems. […]
excitation and emission directions, respectively. Also, the alteration in absorbance (OD) at the excitation and fluorescence wavelengths, respectively, is sometimes referred to as A ex and […]
F = 1+KSV [Q] = 1+ Kq τ0 (S13)
Where [Q] is represented as the sample concentration (quencher), the emission intensities F 0 and F are those in the […] of the quencher, respectively.
F ) = log Kass + nlog [Q] (S14)
KEB[EB] = Kapp[compound] (S15)
∆F = (F 0–F), Equation (16) was utilized to examine the Lineweaver –Burk binding constant (KLB) from the linear regression plot of 1/(F0–F) vs 1/[Q]. […]
γ =(F0–F)/F0, CF is denoted as the concentration of sample alone, the linear regression plot of (γ/CF) vs γ was employed to support equation (17), which was used to determine the values of KSA and n, respectively.
2.2.6. FRET calculation by Förster’s theory
Calculating FRET (Fluorescence Resonance Energy Transfer) is a crucial approach in determining the critical distance (r) between donor (BSA) and acceptor (test compound) molecules, in which the binding affinity between the BSA-complex systems could be evalued according to Förster’s theory. The overlap of the emission spectrum of the donor (BSA) and the absorption spectrum of the acceptor (compound) describes that the acceptor (compound) group may get excited as a result of the excited donor's (BSA) energy being lost to the ground […]
The relative orientation factor of the dipoles (K 2) is associated with the geometry of the BSA and complex of the dipoles, the value for random orientation (K 2 = 2/3) like in a fluid […]
F(λ) is represented as the corrected or the normalized emission intensity(OD) of the bovine serum albumin in the range of λ–(λ+∆λ), ε(λ) is denoted as the molar extinction coefficient of […]
The radiative, non-radiative decay and quenching rate constants are denoted as k r, knr and kq, respectively, and the concentration of complex (quenching species) is described as [Q].

[1] = tested on: HepG2 Liver cancer cell line; assay: MTT cell viability assay; format: cell-based; details: 72 h exposure, at least three independent experiments
[2] = tested on: MCF-7 Breast cancer cell line; assay: MTT cell viability assay; format: cell-based; details: 72 h exposure, at least three independent experiments
CT-DNA = assay: DNA binding affinity by viscometric (hydrodynamic) titration; parameters: species or system calf; details: for Relative Specific Viscosity (η/η0)^1/3: DNA 100 µM; for Slope of (η/η0)^1/3 vs [Compound]/[DNA]: linear plot, R 0.2–1.0
Description: The hydrodynamic titrations were carried out for all substances along with ethidium bromide (control) at 20, 40, 60, 80, 100 µM concentrations. In the Ostwald viscometer, these substances were also separately treated with the deoxyribonucleic acid solution (100 µM).
2.2.4. Viscometry-based titration for investigation of DNA binding
The Viscometry-based titration measurements were further supportive and delivered data about the binding modes between test compound and DNA base pairs. Nevertheless, it does not deliver definite confirmation for the exact mode of interactions. The experiment performed for all test compounds and ethidium bromide (control) at various concentrations 20, 40, 60, 80, 100 µM and each compound mixed with the CT-DNA solution (100 µM) in the Ostwald viscometer. With an accuracy of 0.01 seconds, a digital stopwatch was used to measure the average flow time. Due to the enhancement of the DNA's overall contour length during the separation of base pairs at intercalation sites, the classical intercalative mode […]
Generally, the compounds may result in less positive/negative or no viscosity change if they bind with DNA base pairs via […]
major or minor grooves [ 26]. […]
compounds via intercalation.

[3] = tested on: NHDF Normal human dermal fibroblasts cell line; assay: MTT cell viability assay; format: cell-based; details: 72 h exposure
Mucor indicus = assay: Agar disc diffusion antifungal test; details: for diameter of clear zone inhibition / Inhibition %: J; for diameter of clear zone inhibition: 20 µL of 100 µM on 6 mm disc, Control (DMSO) = 6 mm; for Inhibition %: (T–C)/T × 100
[4] = tested on: A549 Human lung cancer cell line; assay: MTT cell viability assay; format: cell-based; details: 72 h exposure, at least three independent experiments

T1 sequence (P02769 25-607): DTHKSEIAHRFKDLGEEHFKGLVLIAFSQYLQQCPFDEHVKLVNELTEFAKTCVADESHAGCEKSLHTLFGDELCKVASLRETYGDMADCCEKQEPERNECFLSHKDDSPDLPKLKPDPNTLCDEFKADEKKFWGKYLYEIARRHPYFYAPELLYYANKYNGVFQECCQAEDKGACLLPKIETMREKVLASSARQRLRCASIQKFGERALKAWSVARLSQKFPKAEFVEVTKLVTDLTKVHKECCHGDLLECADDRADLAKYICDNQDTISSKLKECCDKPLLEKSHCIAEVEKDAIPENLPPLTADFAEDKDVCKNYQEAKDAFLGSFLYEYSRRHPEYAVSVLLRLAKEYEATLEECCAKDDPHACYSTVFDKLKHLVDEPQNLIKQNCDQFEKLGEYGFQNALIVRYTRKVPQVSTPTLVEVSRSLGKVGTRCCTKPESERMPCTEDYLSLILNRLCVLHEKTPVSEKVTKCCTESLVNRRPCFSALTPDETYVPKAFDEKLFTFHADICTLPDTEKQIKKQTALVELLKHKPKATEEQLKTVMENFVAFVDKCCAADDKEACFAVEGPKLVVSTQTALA

SMILES	J (normalized spectral overlap integral) (BSA)	kET (rate of exchange resonance energy transfer) (BSA)	r (donor-acceptor separation) (BSA)	E (efficiency of energy transfer) (BSA)	B (average brightness of the complex-BSA system) (BSA)	R0 (critical distance, 50% energy transfer) (BSA)	IC50 [1]	IC50 [2]	Relative Specific Viscosity (η/η0)^1/3 (CT-DNA; R = [Complex]/[DNA] = 0.2)	Relative Specific Viscosity (η/η0)^1/3 (CT-DNA; R = [Complex]/[DNA] = 0.4)	Relative Specific Viscosity (η/η0)^1/3 (CT-DNA; R = [Complex]/[DNA] = 0.6)	Relative Specific Viscosity (η/η0)^1/3 (CT-DNA; R = [Complex]/[DNA] = 0.8)	Relative Specific Viscosity (η/η0)^1/3 (CT-DNA; R = [Complex]/[DNA] = 1.0)	Slope of (η/η0)^1/3 vs [Compound]/[DNA] (CT-DNA)	IC50 [3]	diameter of clear zone inhibition (Mucor indicus)	Inhibition % (Mucor indicus)	IC50 [4]	zone of inhibition at 100 µM (Mucor indicus; read-out: diameter of clear zone inhibition)
[O-]c1ccccc1N=Cc1ccc(N2CCOCC2)cc1.[O-]c1ccccc1N=Cc1ccc(N2CCOCC2)cc1.[Zn+2].c1cnc2c(c1)ccc1cccnc12 [(2b), [Zn^II(L)2(phen)]]	0.9460 × 10^−14 LM^−1cm^3	4.7730	2.8257 nm	0.3231	5650.81 M⁻¹ cm⁻¹	2.4980 nm	33.4 ± 1.4 µM	32.5 ± 1.3 µM	0.80	0.91	1.16	1.21	1.53	0.840	74.5 ± 3 µM	10 mm	40%	32.1 ± 1.3 µM	–
Oc1ccccc1N=Cc1ccc(N2CCOCC2)cc1 [(HL), 2-(4-morpholinobenzylideneamino)phenol]	0.8215 × 10^−14 LM^−1cm^3	5.8443	2.6685 nm	0.3462	5339.79 M⁻¹ cm⁻¹	2.4400 nm	–	–	0.61	0.67	0.75	0.85	1.01	0.462 and 0.4616	–	–	45%	–	11 mm
[Cu+2].[O-]c1ccccc1N=Cc1ccc(N2CCOCC2)cc1.[O-]c1ccccc1N=Cc1ccc(N2CCOCC2)cc1.c1cnc2c(c1)ccc1cccnc12 [(1b), [Cu^II(L)2(phen)]]	0.6852 × 10^−14 LM^−1cm^3	3.8294	2.7780 nm	0.2769	4999.08 M⁻¹ cm⁻¹	2.3673 nm	30.9 ± 1.2 µM	31.7 ± 1.3 µM	0.82	1.10	1.25	1.45	1.71	1.0805	72.6 ± 2.9 µM	10 mm	40%	29.7 ± 1.2 µM	–
